Assay results from US10071983B2, “Activatable fluorogenic compounds and uses thereof as near infrared probes” (Ramot at Tel-Aviv University Ltd., priority 2011, dated 2018).

Tests used:
[1] = UV-Vis absorption spectrum of dye compounds; assay type: physicochemical; conditions: for λmax: Table 1, first λmax column (absorption peaks)
Text: (§1) Compound 1 (which generates the dye compound QCy7 deprotonation) was obtained as an orange crystalline powder. FIGS. 4A and 4B present the UV-Vis spectrum of Compound 1 (FIG. 4A), compared to that of the acetate Compound 3 (FIG. 4B). […] The obtained large stokes shift between the excitation and the emission wavelengths of about 150 nm is a desirable feature for fluorescence probes, which assists in increasing the signal-to-noise ratio.
Compound 14 is composed from a phenol latent donor and two different acceptors; a picolinium moiety and an indolium moiety (see, Scheme 3). Deprotonation of the phenolic dye leads to formation of new donor-acceptor pair fluorochrome.
Compound 18 is composed of a phenol latent donor and two identical acceptors based on a picolinium moiety (see, Scheme 4). Deprotonation of the phenolic form leads to formation of new donor-acceptor pair fluorochrome.
Compound 25 is composed of a phenol latent donor and three acceptors; two picolinium moieties and one indolium moiety (see, Scheme 5). Deprotonation of the phenolic compound leads to formation of three resonance donor-two-acceptor structures of new fluorochrome.
The chemical 2D structures and spectroscopic data obtained for exemplary dye molecules according to embodiments of the present invention are presented in Table 1.

[2] = NIR fluorescence emission spectrum of dye compounds; assay type: physicochemical; conditions: for λmax: Table 1, λmax (fluorescence emission)
Text: as §1
(§2) FIG. 5 presents the data obtained for fluorescence intensity vs. wavelength of standard sample (Cresyl violet; FIG. 5A), and test sample (QCy7; FIG. 5B), at the indicated concentrations. The measurements were performed in a 1 cm cuvette using Fluoromax-3 fluorometer; at an excitation wavelength of 560 nm. Cresyl violet was dissolved in methanol and Compound 1 in PBS 7.4 (just generating QCy7).
(§3) FIG. 8 presents the data obtained for fluorescence intensity vs. wavelength of standard sample (QCy7; FIG. 8A), and test sample (Sulfo-QCy7, generated from Compound 9; FIG. 8B), at the indicated concentrations. The measurements were performed at a 96-wells plate reader using Fluoromax-3 fluorometer; at an excitation wavelength of 560 nm. Both samples were dissolved in PBS 7.4.

[3] = Fluorescence quantum yield calculation against a reference dye; assay type: physicochemical; conditions: PBS 7.4
Procedure: Cresyl-violet-perchlorate (as presented hereinbelow) was chosen as a reference compound for the determination of QCy7 quantum yield.
as §2
Conversion to the absolute quantum yield is achieved through the following equation: ΦX=ΦST(GradX/GradST)(η^2X/η^2ST) where the subscripts ST and X denote standard and test respectively, Φ is the fluorescence quantum yield, Grad the gradient from the plot of integrated fluorescence intensity vs. absorbance (see, FIG. 6), and η the refractive index of the solvents. ΦCresyl-violet=0.55 [Stefan et al. ([…]) J. Phys. Chem. 86, 1738-1742].
QCy7 was chosen as a reference compound for the determination of Sulfo-QCy7 quantum yield.
as §3
The absolute quantum yield was calculated as described hereinabove and found to be: […]

[4] = NIR fluorescence assay of probe Compound 4 with hydrogen peroxide
Procedure: In order to evaluate the NIR fluorescence obtained by probe Compound 4 upon reaction with hydrogen peroxide under physiological conditions, the probe was incubated in PBS 7.4 at 37° C., in the presence and absence of hydrogen peroxide at varying concentrations, and the emitted NIR fluorescence was measured by a spectrophotometer (M2 of Molecular Device). The results, presented in FIG. 20A, indicate full conversion of probe Compound 4 to sulfo-QCy7 within 30 minutes (red plot).
The sensitivity of probe Compound 4 towards detection of hydrogen peroxide was then evaluated.

[5] = In vivo imaging of exogenous hydrogen peroxide (premixed probe injected); design: species or system mice
Procedure: Initially, as a simple control experiment, a premixed solution of probe 4 with hydrogen peroxide was injected into the peritoneal cavity, and the mice were imaged in a CRI Maestro™ non-invasive fluorescence imaging system.
Next, it was tested whether probe Compound 4 can be used to differentiate in vivo various concentrations of hydrogen peroxide in order to test the system's sensitivity. Therefore, two different concentrations of hydrogen peroxide were premixed with probe Compound 4; immediately injected intramuscularly, into the leg, and then imaged by the CRI Maestro™ non-invasive fluorescence imaging system.

[6] = system: endogenously produced hydrogen peroxide; test: In vivo imaging of endogenous hydrogen peroxide, LPS-induced acute inflammation; design: species or system Balb/c mice
Procedure: To induce acute inflammation in Balb/c mice, 1 ml (0.1 mg/ml) of LPS (Lipopolysaccharides from Escherichia coli 055:B5, Sigma) was injected into the peritoneal cavity of Balb/c mice as previously described [Lee, D. et al. Nat. Mater. 6, 765-769 (2007)]. Six hours later, additional i.p. injections of 400 μl of 1 mM of the tested probe compound or PBS (as control) were performed. Second control group of mice was injected i.p. with 1 ml of PBS followed by additional i.p. injection of 400 μl PBS. Fifteen minutes later, mice were anesthetized using ketamine (100 mg/kg) and xylazine (12 mg/kg), treated with a depilatory cream (Veet®), and placed inside CRI Maestro non-invasive fluorescence imaging system. Multispectral image-cubes were acquired through 600-800 nm spectral range in 10 nm steps using excitation (595 nm) and emission (635 nm longpass) filter set. Mice autofluorescence and undesired background signals were eliminated by spectral analysis and linear unmixing algorithm. Activated probe-fluorescence unmixed specific signal was quantified as total signal of photons/exposure time (sec). Data is expressed as mean±s.d.
The, the use of probe Compound 4 for visualizing endogenously-produced hydrogen peroxide was tested. […] Mater. 6, 765-9 (2007)]. Mice were injected intraperitoneally (i.p.) with LPS (1 ml of 0.1 mg/ml), followed 6 hours later by additional i.p. injection of probe Compound 4 (400 μl of 1 mM) and were thereafter imaged by the CRI Maestro™ non-invasive fluorescence imaging system.

[7] = NIR fluorescence emission spectrum of dye compounds; assay type: physicochemical; conditions: PBS 7.4 [50 μM], excitation 570 nm, cutting filter >690 nm
[8] = Aqueous stability in PBS 7.4 at 37° C., NIR emission over 72 hours; assay type: physicochemical; conditions: PBS 7.4 [25 μM]
Procedure: The aqueous stability of the cyanine-like dye compound presented herein was tested and compared to that of the cyanine molecule Cy7.
All tested compounds were incubated in PBS 7.4 [25 μM], at 37° C., and their NIR fluorescent emission was monitored over 72 hours. FIG. 15 presents the normalized intensity of NIR fluorescent emission of dyes generated from Compound 9 (green circles; Sulfo-QCy7), Compound 14 (blue diamonds), Compound 18 (red squares), Compound 25 (orange triangles) and Compound 1 (blank navy squares; QCy7) as a function of incubation time.

[9] = pKa measurement by UV-Vis absorbance as a function of pH; assay type: physicochemical; conditions: buffers at the indicated pH; 50 μM in buffers, phenol form
Procedure: The pKa values of exemplary compounds according to some embodiments of the present invention, Compounds 14, 18 and 25, was measured by monitoring their UV-Vis absorbance as a function of the environment pH. The tested compounds, at a concentration of 50 μM were dissolved in the respective buffers at the indicated pH and their absorbance was measured.

Compound	λmax [2]	quantum yield [3]	further results
C[n+]1ccc(/C=C/c2ccc(O)c(/C=C/c3cc[n+](C)cc3[N+](=O)[O-])c2)c([N+](=O)[O-])c1.[I-].[I-] [Compound 12]	No fluores- cence		λmax [1]: 350 nm
C[n+]1ccc(/C=C/c2ccc(O)c(/C=C/c3cc[n+](C)cc3C#N)c2)c(C#N)c1.[I-].[I-] [Compound 11]	730 nm		
C[n+]1ccc(/C=C/c2ccc(O)c(/C=C/c3cc[n+](C)c4ccccc34)c2)c2ccccc21.[I-].[I-] [Compound 13]	No fluores- cence		λmax [1]: 550 nm
C[n+]1ccc(/C=C/c2ccc(O)c(/C=C/c3cc[n+](C)cc3)c2)cc1.[I-].[I-] [Compound 10]	720 nm		
CC(C)(C)c1cc(/C=C/c2ccc(O)c(/C=C/c3cc(C(C)(C)C)[o+]c(C(C)(C)C)c3)c2)cc(C(C)(C)C)[o+]1 [Compound 15]	No fluores- cence		
C[n+]1ccc(/C=C/c2cc(/C=C/c3cc(C(C)(C)C)[o+]c(C(C)(C)C)c3)ccc2O)cc1.I [Compound 16]	730 nm		λmax [1]: 580 nm
C[n+]1ccc(/C=C/c2cc(Br)cc(/C=C/c3cc[n+](C)cc3)c2O)cc1 [Compound 27]	720 nm	2.9%	
C[n+]1ccc(/C=C/c2cc(/C=C/c3cc[n+](C)cc3)c(O)c(/C=C/c3cc[n+](C)cc3)c2)cc1.I.I [Compound 31]	720 nm		
CCOC(=O)c1cc(/C=C/c2cc[n+](C)cc2C#N)c(O)c(/C=C/c2cc[n+](C)cc2C#N)c1 [Compound 21]	730 nm		
CC1(C)C(/C=C/c2cc(/C=C/C3=[N+](CCCS(=O)(=O)[O-])c4ccccc4C3(C)C)c(O)c(/C=C/C3=[N+](CCCS(=O)(=O)[O-])c4ccccc4C3(C)C)c2)=[N+](CCCS(=O)(=O)[O-])c2ccccc21 [Compound 30]	710 nm	16%	
C[n+]1ccc(/C=C/c2ccc(O)c(/C=C/c3cc[n+](C)cc3S(=O)(=O)[O-])c2)c(S(=O)(=O)[O-])c1 [Compound 17]	730 nm	2.6%	
C[n+]1ccc(/C=C/c2cc([N+](=O)[O-])cc(/C=C/c3cc[n+](C)cc3)c2O)cc1 [Compound 23]	600 nm		
C[n+]1ccc(/C=C/c2cc(C(=O)O)cc(/C=C/c3cc[n+](C)cc3)c2O)cc1 [Compound 29]	700 nm	2%	
CC1(C)C(/C=C/c2ccc(OCc3ccc(B(O)O)cc3)c(/C=C/C3=[N+](CCCS(=O)(=O)[O-])c4ccccc4C3(C)C)c2)=[N+](CCCS(=O)(=O)[O-])c2ccccc21 [Compound 4]			NIR fluorescence in the absence of hydrogen peroxide ([4]; PBS 7.4, 37° C.): No NIR fluorescence is observed; time to full conversion of probe to sulfo-QCy7 ([4]; probe [50 μM], hydrogen peroxide [50 μM], PBS 7.4, 37° C.): ≤ 30 min; detectable hydrogen peroxide concentration ([4]; probe [100 μM]): below 1 μM; NIR fluorescence in vivo, probe premixed with hydrogen peroxide ([5]; injected into the peritoneal cavity): can generate NIR fluorescence in vivo image; NIR fluorescence in vivo, probe only ([5]; injected into the peritoneal cavity, no hydrogen peroxide): did not show any detectable NIR fluorescence; dependence of NIR fluorescence intensity on hydrogen peroxide concentration in vivo ([5]; premixed, injected intramuscularly into the leg): dependent on the hydrogen peroxide initial concentration; signal-to-noise ratio of NIR fluorescence intensity vs control group ([6]; LPS i.p., probe 400 μl of 1 mM i.p. 6 hours later): about 10 fold; NIR fluorescence signal, LPS-treated vs non-LPS treated mice ([6]; LPS i.p., probe i.p. 6 hours later): significantly greater intensity of NIR fluorescence signal; NIR fluorescence in mice treated only with probe ([6]; no LPS): slight NIR fluorescence; appearance under NIR imaging camera [7]: clearly transparent
C[n+]1ccc(/C=C/c2cc(C=O)cc(/C=C/c3cc[n+](C)cc3)c2O)cc1 [Compound 22]	650 nm	7%	
CCOC(=O)c1cc(/C=C/c2cc[n+](C)c3ccccc23)c(O)c(/C=C/c2cc[n+](C)c3ccccc23)c1 [Compound 20]	No fluores- cence		
C[n+]1ccc(/C=C/c2cc(/C=C/C3=[N+](CCCS(=O)(=O)[O-])c4ccccc4C3(C)C)ccc2O)cc1.[I-] [Compound 14]	650 nm	17%	UV-Vis absorption peak maximum ([1]; PBS 7.4): 550 nm; fluorescence emission peak in the NIR region ([2]; PBS 7.4): 680 nm; aqueous stability compared with Cy7 [8]: increase aqueous stability than that of Cy7; loss of NIR fluorescence during incubation period [8]: did not show any loss of NIR fluorescence; pKa [9]: 2.9
CC(=O)Oc1ccc(/C=C/C2=[N+](C)c3ccccc3C2(C)C)cc1/C=C/C1=[N+](C)c2ccccc2C1(C)C [Compound 3]			fluorescence emission in the NIR region of masked derivative ([2]; PBS 7.4 [100 μM], λex=560 nm): did not show any fluorescence emission in the NIR region
CCOC(=O)c1cc(/C=C/c2cc[n+](C)cc2)c(O)c(/C=C/c2cc[n+](C)cc2)c1 [Compound 19]	660 nm		
